Source: patent US20140179664A1, “Heterocyclyl Pyrimidine Analogues As JAK Inhibitors” (Cellzome Limited, priority 2011, published 2014)

Target: T1, JAK3 (Homo sapiens, UniProt P52333)
T1 construct: endogenous in cells; host or cells: Molt4 (ATCC CRL-1582) and Ramos (ATCC CRL-1596), mixed lysate 1:2
T1 sequence (P52333 1-1124): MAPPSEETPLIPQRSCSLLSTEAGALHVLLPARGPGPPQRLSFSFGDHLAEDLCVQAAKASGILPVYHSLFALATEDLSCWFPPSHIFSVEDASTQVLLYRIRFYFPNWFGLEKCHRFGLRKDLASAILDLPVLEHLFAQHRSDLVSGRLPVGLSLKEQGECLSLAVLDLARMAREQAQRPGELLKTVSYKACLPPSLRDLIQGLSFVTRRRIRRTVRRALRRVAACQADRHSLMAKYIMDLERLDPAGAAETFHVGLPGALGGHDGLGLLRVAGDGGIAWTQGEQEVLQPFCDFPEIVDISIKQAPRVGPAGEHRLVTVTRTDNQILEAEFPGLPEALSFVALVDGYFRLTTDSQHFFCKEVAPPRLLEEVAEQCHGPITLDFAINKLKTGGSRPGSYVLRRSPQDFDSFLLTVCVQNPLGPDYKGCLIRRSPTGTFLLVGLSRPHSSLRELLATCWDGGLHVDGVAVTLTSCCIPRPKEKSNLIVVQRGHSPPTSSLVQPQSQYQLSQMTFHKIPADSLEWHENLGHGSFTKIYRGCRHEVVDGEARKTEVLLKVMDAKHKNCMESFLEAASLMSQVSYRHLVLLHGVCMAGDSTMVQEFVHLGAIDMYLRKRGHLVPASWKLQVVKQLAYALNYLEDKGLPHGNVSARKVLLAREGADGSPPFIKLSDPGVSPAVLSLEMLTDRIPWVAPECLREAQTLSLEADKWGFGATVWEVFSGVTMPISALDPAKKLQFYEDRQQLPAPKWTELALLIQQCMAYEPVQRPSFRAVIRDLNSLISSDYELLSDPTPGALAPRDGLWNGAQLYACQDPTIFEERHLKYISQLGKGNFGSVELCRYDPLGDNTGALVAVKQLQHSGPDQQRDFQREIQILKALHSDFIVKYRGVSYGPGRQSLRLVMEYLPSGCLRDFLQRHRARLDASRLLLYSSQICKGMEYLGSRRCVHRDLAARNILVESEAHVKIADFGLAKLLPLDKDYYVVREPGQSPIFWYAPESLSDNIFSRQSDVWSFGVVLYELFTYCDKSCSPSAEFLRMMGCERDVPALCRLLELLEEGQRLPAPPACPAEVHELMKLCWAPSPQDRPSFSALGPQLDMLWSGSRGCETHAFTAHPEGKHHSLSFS
Test: Kinobeads assay, JAK3
Assay type: binding
Settings: mixed Molt4/Ramos lysate, read-out: Inhibition values (IC50) JAK3
Experimental: The compounds of the present invention as described in the previous examples were tested in a Kinobeads™ assay as described for ZAP-70 (WO-A 2007/137867). Briefly, test compounds (at various concentrations) and the affinity matrix with the immobilized aminopyrido-pyrimidine ligand 24 were added to cell lysate aliquots and allowed to bind to the proteins in the lysate sample. After the incubation time the beads with captured proteins were separated from the lysate. Bound proteins were then eluted and the presence of JAK1, JAK2, JAK3 and TYK2 was detected and quantified using specific antibodies in a dot blot procedure and the Odyssey infrared detection system. Dose response curves for individual kinases were generated and IC50 values calculated. Kinobeads™ assays for ZAP-70 (WO-A 2007/137867) and for kinase selectivity profiling (WO-A 2006/134056) have been previously described.
The affinity matrix was washed two times with 15 mL of lx DP buffer containing 0.2% NP40 (IGEPAL® CA-630, Sigma, #13021) and then resuspended in 1×DP buffer containing 0.2% NP40 (3% beads slurry).
5×DP buffer: 250 mM Tris-HCl pH 7.4, 25% Glycerol, 7.5 mM MgCl2, 750 mM NaCl, 5 mM Na3VO4; filter the 5×DP buffer through a 0.22 μm filter and store in aliquots at −80° C. The 5×DP buffer is diluted with H2O to 1×DP buffer containing 1 mM DTT and 25 mM NaF.
Stock solutions of test compounds were prepared in DMSO. In a 96 well plate […] solution of diluted test compounds at 5 mM in DMSO were prepared. Starting with this solution a 1:3 dilution series (9 steps) was prepared. For control experiments (no test compound) a buffer containing 2% DMSO was used.
Molt4 cells (ATCC catalogue number CRL-1582) and Ramos cells (ATCC catalogue number CRL-1596) were grown in 1 L Spinner flasks (Integra Biosciences, #182101) in suspension in RPMI 1640 medium (Invitrogen, #21875-034) supplemented with 10% Fetal Bovine Serum (Invitrogen) at a density between 0.15×10^6 and 1.2×10^6 cells/mL. Cells were harvested by centrifugation, washed once with 1×PBS buffer (Invitrogen, #14190-094) and cell pellets were frozen in liquid nitrogen and subsequently stored at −80° C. Cells were homogenized in a Potter S homogenizer in lysis buffer: 50 mM Tris-HCl, 0.8% NP40, 5% glycerol, 150 mM NaCl, 1.5 mM MgCl2, 25 mM NaF, 1 mM sodium vanadate, 1 mM DTT, pH 7.5. One complete EDTA-free tablet (protease inhibitor cocktail, Roche Diagnostics, 1873580) per 25 mL buffer was added. The material was dounced 10 times using a mechanized POTTER S, transferred to 50 mL falcon tubes, incubated for 30 minutes on ice and spun down for 10 minutes at 20,000 g at 4° C. (10,000 rpm in Sorvall SLA600, precooled). The supernatant was transferred to an ultracentrifuge (UZ)-polycarbonate tube (Beckmann, 355654) and spun for 1 hour at 100.000 g at 4° C. (33.500 rpm in Ti50.2, precooled). The supernatant was transferred again to a fresh 50 mL falcon tube, the protein concentration was determined by a Bradford assay (BioRad) and samples containing 50 mg of protein per aliquot were prepared. The samples were immediately used for experiments or frozen in liquid nitrogen and stored frozen at −80° C.
Cell lysate (approximately 50 mg protein per plate) was thawed in a water bath at room temperature and then stored on ice. To the thawed cell lysate 1×DP 0.8% NP40 buffer containing protease inhibitors (1 tablet for 25 mL buffer; EDTA-free protease inhibitor cocktail; Roche Diagnostics 1873580) was added in order to reach a final protein concentration of 10 mg/mL total protein. The diluted cell lysate was stored on ice. Mixed Molt4/Ramos lysate was prepared by combining one volume of Molt4 lysate and two volumes of Ramos lysate (ratio 1:2).
To a 96 well filter plate (Multiscreen HTS, BV Filter Plates, Millipore #MSBVN1250) were added per well: 100 μL affinity matrix (3% beads slurry), […], of compound solution, and 50 μL of diluted lysate. […]

| IC50 [nM] | Structure (SMILES) |
| --- | --- |
| < 100 | Cn1cc(Nc2ncc(Cl)c(NC(CO)c3ccccc3)n2)cn1 (centres unmarked) [Compound 1] |
| 100 to 1000 | Cn1cc(Nc2ncc(F)c(NC(CO)c3ccccc3)n2)cn1 (centres unmarked) [Compound 2] |
| 100 to 1000 | Cn1ccc(Nc2ncc(Cl)c(N[C@H](CO)c3ccccc3)n2)n1 [Compound 11] |
| 100 to 1000 | Cc1cnc(Nc2cnn(CCO)c2)nc1NC(CO)c1ccccc1 (centres unmarked) [Compound 12] |
| < 100 | O=C(c1cc(Nc2ncc(Cl)c(N[C@H](CO)c3ccccc3)n2)c[nH]1)N1CCOCC1 [Compound 13] |
| 100 to 1000 | Cn1cc(Nc2ncc(Cl)c(NC(CO)Cc3ccccc3)n2)cn1 (centres unmarked) [Compound 14] |
| 100 to 1000 | COC(=O)C(Nc1nc(Nc2cnn(CCO)c2)ncc1Cl)c1ccccc1 (centres unmarked) [Compound 15] |
| 100 to 1000 | COC(=O)C(Nc1nc(Nc2cnn(C)c2)ncc1Cl)c1ccccc1 (centres unmarked) [Compound 16] |
| 100 to 1000 | O=C(O)C(Nc1nc(Nc2cnn(CCO)c2)ncc1Cl)c1ccccc1 (centres unmarked) [Compound 17] |
| < 100 | Cn1cc(Nc2ncc(Cl)c(NC(C(=O)O)c3ccccc3)n2)cn1 (centres unmarked) [Compound 18] |
| < 100 | OCCn1cc(Nc2ncc(Cl)c(NC(CO)Cc3ccccc3)n2)cn1 (centres unmarked) [Compound 19] |
| 100 to 1000 | CNC(=O)[C@@H](Nc1nc(Nc2cnn(C)c2)ncc1Cl)c1ccccc1 [Compound 20] |
| < 100 | CC(C)OC(=O)Cn1cc(Nc2ncc(Cl)c(N[C@H](CO)c3ccccc3)n2)cn1 [Compound 21] |
| < 100 | CCOC(=O)Cn1cc(Nc2ncc(Cl)c(N[C@H](CO)c3ccccc3)n2)cn1 [Compound 22] |
| < 100 | CNC(=O)Cn1cc(Nc2ncc(Cl)c(N[C@H](CO)c3ccccc3)n2)cn1 [Compound 23, (S)-2-(4-((5-chloro-4-((2-hydroxy-1-phenylethyl)amino)pyrimidin-2-yl)amino)-1H-pyrazol-1-yl)-N-methylacetamide] |
| < 100 | O=C(O)Cn1cc(Nc2ncc(Cl)c(N[C@H](CO)c3ccccc3)n2)cn1 [Compound 24] |
| 100 to 1000 | CN(C)C(=O)[C@@H](Nc1nc(Nc2cnn(C)c2)ncc1Cl)c1ccccc1 [Compound 25] |
| < 100 | CN(C)C(=O)[C@@H](Nc1nc(Nc2cnn(CCO)c2)ncc1Cl)c1ccccc1 [Compound 26] |
| < 100 | CCNC(=O)[C@@H](Nc1nc(Nc2cnn(CCO)c2)ncc1Cl)c1ccccc1 [Compound 27] |
| < 100 | CCNC(=O)[C@@H](Nc1nc(Nc2cnn(C)c2)ncc1Cl)c1ccccc1 [Compound 28] |
| < 100 | COCCNC(=O)[C@@H](Nc1nc(Nc2cnn(C)c2)ncc1Cl)c1ccccc1 [Compound 29] |
| < 100 | CN(C)C(=O)Cn1cc(Nc2ncc(Cl)c(N[C@H](CO)c3ccccc3)n2)cn1 [Compound 30] |
| < 100 | CNC(=O)Cn1cc(Nc2ncc(Cl)c(NC(CO)c3c(F)cccc3F)n2)cn1 (centres unmarked) [Compound 31] |
| < 100 | CNC(=O)Cn1cc(Nc2ncc(Cl)c(NC(CO)c3cccc(F)c3)n2)cn1 (centres unmarked) [Compound 32] |

| IC50 [nM] | Structure (SMILES) |
| --- | --- |
| < 100 | CNC(=O)Cn1cc(Nc2ncc(Cl)c(NC(CO)c3ccccc3F)n2)cn1 (centres unmarked) [Compound 33] |
| 100 to 1000 | Cn1cc(Nc2ncc(Cl)c(N[C@H](C(=O)N3CCCC3)c3ccccc3)n2)cn1 [Compound 34] |
| 100 to 1000 | O=C([C@@H](Nc1nc(Nc2cnn(CCO)c2)ncc1Cl)c1ccccc1)N1CCCC1 [Compound 35] |
| < 100 | OCCn1cc(Nc2ncc(Cl)c(NC(CO)c3ccccc3F)n2)cn1 (centres unmarked) [Compound 36] |
| < 100 | Cn1cc(Nc2ncc(Cl)c(NC(CO)c3ccccc3F)n2)cn1 (centres unmarked) [Compound 37] |
| < 100 | CC(O)Cn1cc(Nc2ncc(Cl)c(NC(CO)c3cccc(F)c3)n2)cn1 (centres unmarked) [Compound 38] |
| < 100 | OCCn1cc(Nc2ncc(Cl)c(NC(CO)c3cccc(F)c3)n2)cn1 (centres unmarked) [Compound 39] |
| < 100 | Cn1cc(Nc2ncc(Cl)c(NC(CO)c3cccc(F)c3)n2)cn1 (centres unmarked) [Compound 40] |
| 100 to 1000 | OCCn1ccc(Nc2ncc(Cl)c(NC(CO)c3cccc(F)c3)n2)n1 (centres unmarked) [Compound 41] |
| < 100 | CC(O)Cn1cc(Nc2ncc(Cl)c(NC(CO)c3c(F)cccc3F)n2)cn1 (centres unmarked) [Compound 42] |
| < 100 | OCCn1cc(Nc2ncc(Cl)c(NC(CO)c3c(F)cccc3F)n2)cn1 (centres unmarked) [Compound 43] |
| < 100 | Cn1cc(Nc2ncc(Cl)c(NC(CO)c3c(F)cccc3F)n2)cn1 (centres unmarked) [Compound 44] |
| 100 to 1000 | OCCn1ccc(Nc2ncc(Cl)c(NC(CO)c3c(F)cccc3F)n2)n1 (centres unmarked) [Compound 45] |
| < 100 | Cn1cc(Nc2ncc(Cl)c(N[C@H](C(=O)NCCO)c3ccccc3)n2)cn1 [Compound 46] |
| < 100 | O=C(NCCO)[C@@H](Nc1nc(Nc2cnn(CCO)c2)ncc1Cl)c1ccccc1 [Compound 47] |
| < 100 | COCCNC(=O)[C@@H](Nc1nc(Nc2cnn(CCO)c2)ncc1Cl)c1ccccc1 [Compound 48] |
| 100 to 1000 | Cn1cc(Nc2ncc(Cl)c(N[C@H](C(=O)N3CCCCC3)c3ccccc3)n2)cn1 [Compound 49] |
| 100 to 1000 | OCCn1ccc(Nc2ncc(Cl)c(NC(CO)c3ccccc3F)n2)n1 (centres unmarked) [Compound 50] |
| 100 to 1000 | O=C([C@@H](Nc1nc(Nc2cnn(CCO)c2)ncc1Cl)c1ccccc1)N1CCCCC1 [Compound 51] |
| 100 to 1000 | Cn1cc(Nc2ncc(Cl)c(NC(CO)c3cccc(Br)c3)n2)cn1 (centres unmarked) [Compound 52] |
| 100 to 1000 | Cn1cc(Nc2ncc(Cl)c(NC(CO)c3cccc(N4CC5(COC5)C4)c3)n2)cn1 (centres unmarked) [Compound 53] |
| 1000 to 10000 | Cn1cc(Nc2ncc(Cl)c(N[C@@H](CO)c3ccccc3)n2)cn1 [Compound 54] |
| 100 to 1000 | COC[C@@H](Nc1nc(Nc2cnn(C)c2)ncc1Cl)c1ccccc1 [Compound 55] |
